The text below walks through data of patent US10300140B2, “Sur-binding proteins against ERBB3” (I2 PHARMACEUTICALS, INC., priority 2012, dated 2019).

This assay concerns SKBR3 and BT474 cells. Briefly: Enhancement of MK-2206 in SKBR3 and BT474 proliferation. Type of assay: cell-based, human. Conditions: 0.125 or 0.375 nM NRG; single agent. The protocol: The ability of the SgGs to enhance AKT inhibition in unstimulated or NRG-stimulated SKBR3 cells was compared. An AKT inhibitor, MK-2206, was tested against the ErbB2 overexpressing cell lines SKBR3 (13I, 13J) and BT474 (13K, 13L). The indicated amounts of MK-2206 were applied to the cells and they were allowed to proliferate in complete medium containing 10% fetal bovine serum for 6 days (13I, 13K, 13L) or 3 days (13J). Cell content was measured using Cell Titer-Glo® (Promega).

For `NC1(c2ccc(-c3nc4ccn5c(=O)[nH]nc5c4cc3-c3ccccc3)cc2)CCC1` [MK-2206], the “ability to inhibit cell proliferation when cells stimulated with NRG” value is “dramatically reduced”.
